Our source for the melting point, Emax and EC50 values is US20110201656A1, “NOVEL DIPHENYL 1,2,3-TRIAZOLE DERIVATIVES USEFUL AS MODULATORS OF NICOTINIC ACETYLCHOLINE RECEPTORS” (NEUROSEARCH A/S, priority 2008, published 2011).

Molecules are shown by their SMILES.

In data set [1] the target is T1, wild-type nAChR α7 receptors (Homo sapiens, UniProt P36544).
T1 construct: expressed in transfected cells; host or cells: Xenopus laevis oocytes
The data set can be described thus: Positive modulation of nAChR α7 currents in Xenopus laevis oocytes (two-electrode voltage clamp). The settings on record: nAChR α7 expressed in Xenopus laevis oocytes, clamped at −60 mV, 100 μM acetylcholine; for Emax: (test-control)/control×100%, read-out: calculated EC50 Imax (maximal modulation of the control response); for EC50: test compound 0.01-31.6 μM, read-out: calculated EC50 (positive modulation of acetylcholine-induced current). The format is cell-based. As to the method: In this example the positive modulation of wild-type nAChR α7 receptors by Compounds 3, 7 and 8, representative of the invention, was determined using nAChR a7 receptors heterologously expressed in Xenopus laevis oocytes.
The electrical current through the nAChR α7 channel was measured using conventional two-electrode voltage clamp and nAChR α7 currents were activated by applying pulses of agonist-containing solution onto the nAChR α7 expressing oocyte.
In brief, the oocytes were placed in a recording chambers and continuously super-fused with an Oocyte Ringer (OR) solution containing 90 mM NaCl, 2.5 mM KCl, 2.5 mM CaCl2, 1 mM MgCl2 and 5 mM HEPES (pH adjusted to 7.4). The oocytes were clamped at −60 mV and currents were induced by applying 20 s pulses of 100 μM acetylcholine dissolved in OR. The intervals between the acetylcholine applications were 5 minutes, during which the oocytes were washed with OR. The first three applications were control applications to insure a constant response level of 100 μM acetylcholine. For the subsequent test applications, increasing concentrations (0.01-31.6 μM) of the test compound were applied 30 s before and during the acetylcholine (100 μM) application, which caused a robust increase in the acetylcholine-induced current amplitude.
The positive modulation in the presence of Compound 4 was calculated as (test-control)/control×100% and the concentration response curve for this positive modulation was fitted to the sigmoidal logistic equation: I=Imax/(1+(EC50/[compound])^n), where Imax represents the maximal modulation of the control response, EC50 is the concentration causing a half maximal response, and n is the slope coefficient.

T1 sequence (P36544 23-502): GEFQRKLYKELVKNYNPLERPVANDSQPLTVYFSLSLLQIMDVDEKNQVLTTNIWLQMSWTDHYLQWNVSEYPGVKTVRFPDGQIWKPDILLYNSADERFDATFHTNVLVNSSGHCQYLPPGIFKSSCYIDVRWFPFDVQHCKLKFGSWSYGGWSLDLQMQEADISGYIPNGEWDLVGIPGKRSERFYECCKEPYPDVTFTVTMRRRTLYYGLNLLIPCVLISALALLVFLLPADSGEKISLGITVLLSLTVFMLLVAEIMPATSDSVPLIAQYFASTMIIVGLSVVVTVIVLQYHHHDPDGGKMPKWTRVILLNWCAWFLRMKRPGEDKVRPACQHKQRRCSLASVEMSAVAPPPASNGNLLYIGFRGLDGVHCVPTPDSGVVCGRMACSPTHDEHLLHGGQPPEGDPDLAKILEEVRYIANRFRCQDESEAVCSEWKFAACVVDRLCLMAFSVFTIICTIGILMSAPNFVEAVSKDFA

As usually defined, the melting point is the temperature of the solid-liquid transition. Compound `COc1ccc(-c2nnn(-c3ccc(C(F)(F)F)cc3F)c2C)cc1` [Compound 1, 1-(2-Fluoro-4-trifluoromethyl-phenyl)-4-(4-methoxy-phenyl)-5-methyl-1H-[1,2,3]triazole] had a melting point of 96.5 to 98.9 °C.

Broadly, the EC50 is the concentration that produces a half-maximal response. Turning to `Cc1c(-c2ccc(O)cc2)nnn1-c1ccc(C(F)(F)F)cc1Cl` [Compound 3, 4-[1-(2-Chloro-4-trifluoromethyl-phenyl)-5-methyl-1H-[1,2,3]triazol-4-yl]-phenol], in data set [1], the Emax is 119% and the EC50 was 14 µM.

For `COc1ccc(-c2nnn(-c3ccc(C(F)(F)F)cc3Cl)c2CO)cc1` [Compound 7, [3-(2-Chloro-4-trifluoromethyl-phenyl)-5-(4-methoxy-phenyl)-3H-[1,2,3]triazol-4-yl]-methanol], in data set [1], the Emax was 128% and the EC50 was 17 µM.

In the case of `OCc1c(-c2ccc(O)cc2)nnn1-c1ccc(C(F)(F)F)cc1Cl` [Compound 8, 4-[1-(2-Chloro-4-trifluoromethyl-phenyl)-5-hydroxymethyl-1H-[1,2,3]triazol-4-yl]-phenol], in data set [1], the Emax was 136% and the EC50 is 11 µM.
